According to US20250040539A1, “COMPOSITION COMPRISING AN ANTIMICROBIAL AGENT AND A CARBOXAMIDE” (BASF SE, priority 2021, published 2025):

Legend:
Type in all cases: cell-based
[1] = test system: fungal mix (including yeasts and molds): Aspergillus brasiliensis DSM 1988, Rhodotorula mucilaginosa DSM 13621, Yarrowia lipolytica DSM 8218; assay: Preservative activity of a basic composition (10% PG in water, pH 7) with 2-phenoxyethanol against fungal contamination (Example 1.1); conditions: 10% PG + 0.36% PE + 0.04% Amide in water, pH 7, 25° C.; for d7 [CFU/ml]: fungal mix inoculated at day 0, 7 and 14 (1-3x10E+05 CFU/ml), day 7 before re-inoculation; for d14 [CFU/ml] / d21 [CFU/ml]: fungal mix inoculated at day 0, 7 and 14; for d14 [CFU/ml]: day 14 before re-inoculation; for d21 [CFU/ml]: day 21
Procedure: An aqueous composition of pH 7 comprising 10% by weight of propyleneglycol (PG) as organic solvent, 0.36% by weight of 2-phenoxyethanol (PE) as antimicrobial and 0.04% by weight of the amide listed in the below table was tested for its preserving activity against fungal contamination (the percentages are weight percent and relate to the total weight of the composition). For this purpose, the samples were contaminated with a fungal mix (including yeasts and molds) consisting of: • Aspergillus brasiliensis DS M 1988 • Rhodotorula mucilaginosa DSM 13621 • Yarrowia lipolytica DS M 8218
To control the efficacy, following control compositions were tested: • “Reference”, consisting of only 10% by weight of propylene glycol in water • “Comparative 1” containing 10% by weight of propylene glycol and amide in the given concentration, but no 2-phenoxyethanol • […] in the given concentration, but no amide.
The samples were inoculated with the fungal mix at day 0, 7 and 14 to obtain a cell density in the range of 1-3×10E+05 CFU/ml (CFU=colony forming units) in the test samples (compositions listed in the below table) and stored at 25° C. for 21 days.
(§1) CFU was determined before re-inoculation at days 7 and 14, and on day 21.

[2] = test system: fungal mix: Aspergillus brasiliensis DSM 1988, Rhodotorula mucilaginosa DSM 13621, Yarrowia lipolytica DSM 8218; assay: Preservative activity in a manual dishwashing composition (MDW, pH 7.1) with 1.0% 2-phenoxyethanol against fungal mix (Example 1.2); conditions: for d7 [CFU/ml]: day 7; for d14 [CFU/ml]: day 14; for d21 [CFU/ml]: day 21
Procedure: (§2) A manual dish wash detergent (MDW) of pH 7.1 containing the following components was used:
The samples were contaminated with a fungal mix consisting of: • Aspergillus brasiliensis DSM 1988 • Rhodotorula mucilaginosa DSM 13621 • Yarrowia lipolytica DSM 8218
The samples were inoculated with the fungal mix at day 0 and 7 to obtain 1-3×10E+05 CFU/ml inoculation in the test sample consisting of the above-defined dish wash detergent MDW and stored at 25° C. for 21 days. CFU was determined before re-inoculation at day 7, and on days 14 and 21.
Any CFU value at d7, d14 or d21 obtained with a MDW sample of the invention containing 2-phenoxyethanol and amide (MDW+1.0% PE+x % of Amide) lower than the respective value of the comparative example (MDW+1.0% by weight of 2-phenoxyethanol) indicates a better performance of the inventive combination of 2-phenoxyethanol with the amide.

[3] = test system: bacterial mix: Escherichia coli DSM 1576, Alcaligenes faecalis DSM 13644, Pseudomonas aeuginosa ATCC 15442, Staphylococcus aureus ATCC 6538, Burkholderia …; assay: Preservative activity of a basic composition (10% PG in water, pH 7) with 2-phenoxyethanol against bacterial contamination (Example 2.1); conditions: 10% PG + 0.36% PE + 0.04% amide; for d7 [CFU/ml]: day 7; for d14 [CFU/ml]: day 14; for d21 [CFU/ml]: day 21
Procedure: (§3) An aqueous composition of pH 7 comprising 10% by weight of propyleneglycol (PG) as organic solvent, 0.36% by weight of 2-phenoxyethanol (PE) as antimicrobial and 0.04% by weight of the amide listed in the below table was tested for its preserving activity against bacterial contamination (the weight percentages relate to the total weight of the composition). For this purpose, the samples were contaminated with a bacterial mix consisting of: • Escherichia coli DSM 1576 • Alcaligenes faecalis DSM 13644 • Pseudomonas aeuginosa ATCC 15442 • Staphylococcus aureus ATCC 6538 • Burkholderia cepacia DSM 7288 • Pseudomonas putida DSM 12735
The samples were inoculated with the bacterial mix at day 0, 7 and 14 to obtain 10E+06 to 10E+07 CFU/ml inoculation in the test samples (compositions listed in the below table) consisting of 10% by weight of propylene glycol in water and stored at 25° C. for 21 days.
as §1

[4] = test system: bacterial mix: Escherichia coli DSM 1576, Alcaligenes faecalis DSM 13644, Pseudomonas aeruginosa ATCC 15442, Staphylococcus aureus ATCC 6538, Burkholderia …; assay: Preservative activity in a manual dishwashing composition (MDW, pH 7.1) with 2.0% 2-phenoxyethanol against bacterial mix (Example 2.4); conditions: for d7 [CFU/ml]: day 7; for d14 [CFU/ml]: day 14; for d21 [CFU/ml]: day 21
Procedure: as §2
(§4) The samples were contaminated with a bacterial mix consisting of: • Escherichia coli DSM 1576 • Alcaligenes faecalis DSM 13644 • Pseudomonas aeruginosa ATCC 15442 • Staphylococcus aureus ATCC 6538 • Burkholderia cepacia DSM 7288 • Pseudomonas putida DSM 12735
The samples were inoculated with the bacterial mix at day 0 and 7 to obtain 10E+06 to 10E+07 CFU/ml inoculation in the test sample and stored at 25° C. for 21 days. CFU was determined before re-inoculation at day 7 and on days 14 and 21.
Any CFU value at day 7 (d7), day 14 (d14) or day 21 (d21) obtained with a sample according to the invention containing 2-phenoxyethanol and amide (MDW+2.0% PE+x % Amide) lower than the respective value of the “comparative 2” example (MOW+2.0% by weight of 2-phenoxyethanol) indicates a better performance.

[5] = test system: bacterial mix: Escherichia coli DSM 1576, Alcaligenes faecalis DSM 13644, Pseudomonas aeruginosa ATCC 15442, Staphylococcus aureus ATCC 6538, Burkholderia …; assay: Preservative activity in a manual dishwashing composition (MDW, pH 7.1) with 1.0% 2-phenoxyethanol against bacterial mix (Example 2.5); conditions: MDW + 1.0% PE + 1.0% amide
Procedure: A manual dish wash detergent (MOW) of pH 7.1 containing the following components was used:
as §4
The samples were inoculated with the bacterial mix at day 0 and 7 to obtain 10E+06 to 10E+07 CFU/ml inoculation in the test sample and stored at 25° C. for 21 days. CFU was determined before re-inoculation at day 7 and on day 21.
Any CFU value at day 7 (d7) or day 21 (d21) obtained with a sample according to the invention containing 2-phenoxyethanol and amide (MDW+1.0% PE+1.0% Amide) lower than the respective value of the comparative example (MDW+1% by weight of 2-phenoxyethanol) indicates a better performance.

[6] = test system: bacterial mix: Escherichia coli DSM 1576, Alcaligenes faecalis DSM 13644, Pseudomonas aeruginosa ATCC 15442, Staphylococcus aureus ATCC 6538, Burkholderia …; assay: Preservative activity of a basic composition (10% PG in water, pH 7) with 4,4'-dichloro-2-hydroxydiphenyl ether (diclosan) against bacterial contamination (Example 2.2); conditions: day 7
Procedure: as §3, with “0.015%” for “0.36%”, “4,4′-dichloro-2-hydroxydiphenyl ether (diclosan)” for “2-phenoxyethanol (PE)”, “0.04 or 0.1%” for “0.04%”, “amides” for “amide”, “aeruginosa” for “aeuginosa”
The samples were inoculated with the bacterial mix at day 0 to obtain 10E+06 to 10E+07 CFU/ml inoculation in the test sample and stored at 25° C. for 7 days.
CFU was determined at day 7.
Any CFU value at day 7 (d7) obtained with a sample according to the invention containing diclosan and amide (10% PG+0.015% diclosan+Amide in water) lower than the respective value of the “comparative 3” example (10% by weight of propyleneglycol+0.015% by weight of 4,4′-dichloro-2-hydroxydiphenyl ether (diclosan) in water) indicates a better performance.

[7] = MDW + 0.25% amide, no PE (Comparative 1c)
[8] = MDW + 5.0% amide, no PE (Comparative 1a)

SMILES: CCCCC(CC)CNC(=O)/C=C\C(=O)O (centres unmarked) [Maleic acid N-2-ethylhexyl-amide]
- d7 [CFU/ml] [1]: 875 CFU/ml
- d14 [CFU/ml] [1]: 8,500 CFU/ml
- d21 [CFU/ml] [1]: 18,500 CFU/ml
- d7 [CFU/ml] ([2]; MDW + 1.0% PE + 0.6% amide): 14,500 CFU/ml
- d14 [CFU/ml] ([2]; MDW + 1.0% PE + 0.6% amide): 2,900 CFU/ml
- d21 [CFU/ml] ([2]; MDW + 1.0% PE + 0.6% amide): 225 CFU/ml
- d7 [CFU/ml] [3]: 545 CFU/ml
- d14 [CFU/ml] [3]: 22,000 CFU/ml
- d21 [CFU/ml] [3]: 20,500 CFU/ml
- d7 [CFU/ml] [4, 7]: >100,000 CFU/ml
- d14 [CFU/ml] [4, 7]: >100,000 CFU/ml
- d21 [CFU/ml] [4, 7]: >100,000 CFU/ml
- d7 [CFU/ml] ([4]; MDW + 1.0% amide, no PE): >100,000 CFU/ml
- d14 [CFU/ml] ([4]; MDW + 1.0% amide, no PE): >100,000 CFU/ml
- d21 [CFU/ml] ([4]; MDW + 1.0% amide, no PE): >100,000 CFU/ml
- d7 [CFU/ml] ([4]; MDW + 2.0% PE + 0.25% amide): <10 CFU/ml
- d14 [CFU/ml] ([4]; MDW + 2.0% PE + 0.25% amide): <10 CFU/ml
- d21 [CFU/ml] ([4]; MDW + 2.0% PE + 0.25% amide): <10 CFU/ml
- d7 [CFU/ml] ([4]; MDW + 2.0% PE + 1.0% amide): <10 CFU/ml
- d14 [CFU/ml] ([4]; MDW + 2.0% PE + 1.0% amide): <10 CFU/ml
- d21 [CFU/ml] ([4]; MDW + 2.0% PE + 1.0% amide): <10 CFU/ml
- d7 [CFU/ml] ([4]; MDW + 2.0% PE + 5.0% amide): <10 CFU/ml
- d14 [CFU/ml] ([4]; MDW + 2.0% PE + 5.0% amide): <10 CFU/ml
- d21 [CFU/ml] ([4]; MDW + 2.0% PE + 5.0% amide): <10 CFU/ml
- d7 [CFU/ml] [4, 8]: >100,000 CFU/ml
- d14 [CFU/ml] [4, 8]: >100,000 CFU/ml
- d21 [CFU/ml] [4, 8]: >100,000 CFU/ml

SMILES: C=CCCCCCCCC(=O)N(C)C [N,N-dimethyl 9-decenoylamide]
- d7 [CFU/ml] ([5]; day 7): <10 CFU/ml
- d21 [CFU/ml] ([5]; day 21): <10 CFU/ml

SMILES: Oc1cc(Cl)ccc1Oc1ccc(Cl)cc1 [diclosan, 4,4′-dichloro-2-hydroxydiphenyl ether, reference compound]
- d7 [CFU/ml] ([6]; 10% PG + 0.015% diclosan, no amide (Comparative)): >100,000 CFU/ml

SMILES: CCCCCCCCCC(=O)N1CCOCC1 [n-Decanoyl-morpholine]
- d7 [CFU/ml] [1]: 55 CFU/ml
- d14 [CFU/ml] [1]: <10 CFU/ml
- d21 [CFU/ml] [1]: 35 CFU/ml
- d7 [CFU/ml] ([2]; MDW + 1.0% PE + 1.0% amide): 1,200 CFU/ml
- d14 [CFU/ml] ([2]; MDW + 1.0% PE + 1.0% amide): 305 CFU/ml
- d21 [CFU/ml] ([2]; MDW + 1.0% PE + 1.0% amide): 245 CFU/ml
- d7 [CFU/ml] [3]: <10 CFU/ml
- d14 [CFU/ml] [3]: 30 CFU/ml
- d21 [CFU/ml] [3]: 190 CFU/ml
- d7 [CFU/ml] ([6]; 10% PG + 0.015% diclosan + 0.04% amide): 41,500 CFU/ml
- d7 [CFU/ml] ([6]; 10% PG + 0.04% amide, no diclosan (Comparative 1a)): >100,000 CFU/ml

SMILES: CCCCCCCC(=O)N(C)C [n-Octanoyl-N,N-dimethylamide]
- d7 [CFU/ml] [3]: 25 CFU/ml
- d14 [CFU/ml] [3]: 2,100 CFU/ml
- d21 [CFU/ml] [3]: 5,550 CFU/ml

SMILES: CCCCN(CCCC)C(=O)CC [n-Propanoyl-N,N-dibutylamide]
- d7 [CFU/ml] [1]: 1,750 CFU/ml
- d14 [CFU/ml] [1]: 3,750 CFU/ml
- d21 [CFU/ml] [1]: 25,000 CFU/ml
- d7 [CFU/ml] [3]: 39,500 CFU/ml
- d14 [CFU/ml] [3]: 39,000 CFU/ml
- d21 [CFU/ml] [3]: 23,500 CFU/ml
